PubChem BioAssay (NCI)
Values joined by “and” are separate entries in the source; they are usually repeats but may differ in a detail not shown here. Equal entries are not always repeated.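 Method: 48-hour compound exposure of cells in 96-well plates, five concentrations, linear interpolation of endpoints. Here, GI50 denotes the concentration required for 50% inhibition of growth. Definition used: TGI = concentration required for complete inhibition of growth.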

What was measured:
Assay in all cases: NCI anticancer screen, dose series, 48 h
[1] = tested on: EKVX NSCLC
[2] = tested on: 786-0 renal
[3] = tested on: RXF 393 renal
[4] = tested on: K-562 leukemia
[5] = tested on: MALME-3M melanoma
[6] = tested on: NCI-H23 lung
[7] = tested on: NCI-H522 lung
[8] = tested on: DU-145 prostate
[9] = tested on: SW-620 colon
[10] = tested on: HS 578T breast

Compound | GI50 [1] | TGI [1] | GI50 [2] | TGI [2] | GI50 [3] | TGI [3] | GI50 [4] | TGI [4] | GI50 [5] | TGI [5] | GI50 [6] | TGI [6] | GI50 [7] | TGI [7] | GI50 [8] | TGI [8] | GI50 [9] | TGI [9] | GI50 [10] | TGI [10]
Cc1ccccc1OCC(O)CN1CCN(c2ccc(Cl)cc2)CC1 (centres undefined) | 13.7 µM | 30.9 µM | 17.4 µM | 32.6 µM | 20.2 µM | 37.8 µM | 10.6 µM | 30.7 µM | 15.2 µM | 31.2 µM | 15.8 µM | 34.5 µM | 14.1 µM | 29.2 µM | 17.9 µM | 32.7 µM | 16.1 µM | 33.1 µM | 21.4 µM | 68.7 µM
COc1cc2nc(N3CCCC3)nc(NCc3ccccc3)c2cc1OC | 6.04 µM | 19.2 µM | 1.65 µM | 3.07 µM | 1.41 µM | 3.06 µM | 2.09 µM | 6.02 µM | 1.84 µM | 3.34 µM | 11.2 µM | 25.2 µM | 2.14 µM | 4.96 µM | 4.62 µM | 16.5 µM | 2.28 µM | 6.24 µM | 1.99 µM | 4.5 µM
COC1CC(O[C@H]2CC[C@@]3(C)[C@H](CC[C@@H]4[C@@H]3CC[C@]3(C)[C@@H](C5=CC(=O)OC5)[C@@H](OC(C)=O)C[C@]43O)C2)OC(C)C1O (some centres undefined) | < 0.01 µM | < 0.01 µM | < 0.01 µM | < 0.01 µM | < 0.01 µM | < 0.01 µM | < 0.01 µM | < 0.0135 µM | < 0.01 µM | < 0.01 µM | < 0.01 µM | < 0.01 µM | < 0.01 µM | < 0.01 µM | < 0.01 µM | < 0.01 µM | < 0.01 µM | < 0.01 µM | < 0.01 µM | < 0.0145 µM
C[C@H]1CC[C@@]2(NC1)O[C@H]1C[C@H]3[C@@H]4CC[C@H]5C[C@@H](O)CC[C@]5(C)[C@H]4CC[C@]3(C)[C@H]1[C@@H]2C | – | > 100 µM | 9.23 µM | 18.7 µM and > 100 µM | > 50 µM | > 50 µM | 6.87 µM | 23 µM and > 100 µM | 11.2 µM | 31.5 µM | 8.92 µM | 19.7 µM and > 100 µM | 13.6 µM | 29.3 µM and > 100 µM | 30.3 µM | 50 µM and > 100 µM | 24.9 µM | 50 µM | 21.8 µM | 50 µM and > 100 µM
CN(C)CCN1C(=O)c2c(c3c4ccccc4n4c3c3c2c2ccccc2n3C2CC(O)C(O)C4(C)O2)C1=O (centres undefined) | 2.24 µM | 13 µM | 1.93 µM | 8.37 µM | 1.89 µM | 8.27 µM | 0.84 µM | 7.54 µM | 2.14 µM | 9.3 µM | 1.81 µM | 9.75 µM | 0.855 µM | 3.66 µM | 1.12 µM | 9.42 µM | 0.407 µM | 7.7 µM | 2.34 µM | 12 µM
